The text below walks through data of patent publication US9012647B2, “Nitroxide modified non-steroidal anti-inflammatory compounds and uses thereof in the treatment and prevention of diseases or disorders” (The United States of America, as Represented by the …, priority 2011, dated 2015).

The nature of data set [1]: Maximum tolerated dose, IP injection. The class given is in vivo. The note with it: nude mice, monitored up to 24 h, death as end point; for MTD at 24 h: female, athymic nude, mouse, in vivo. As to the method: All animal experiments were carried out in compliance with the Guide for the Care and Use of Laboratory Animal Resources (National Research Council, 1996) and were approved by the National Cancer Institute Animal Care and Use Committee. Female athymic nude mice were supplied at 6 weeks of age by the Frederick Cancer Research Center and were housed five per cage in a climate-controlled environment. […] Each animal was weighed individually on the same day as the intraperitoneal (IP) injection. Different dosages were used to determine the maximum tolerated dose to be given to the animals. Each animal was monitored for up to 24 h and death was the end point of the experiment.

Data set [2] deals with LTB4 formation. Description: Leukotriene B4 ELISA in A549 cells. The conditions noted are these: for activity at 10 µg/mL / activity at 100 µg/mL: Homo sapiens, A549; for activity at 10 µg/mL / activity at 100 µg/mL / LTB4 / LTB4 % of control: Table 2B; for activity at 10 µg/mL / activity at 100 µg/mL / LTB4 % of control: control 100 ± 1 pg ml^−1; for LTB4: control 100 ± 1, mean ± S.D., n=3; for inhibition of LTB4 formation: at 10 μg ml^−1 or 100 μg ml^−1. The class given is cell-based. As for the experimental part:
The A549 cell line was grown in Dulbecco's Modified Eagle Medium (DMEM) also supplemented with 10% heat inactivated fetal bovine serum and penicillin-streptomycin. […] The media was changed twice a week.
PGE2 was measured by enzyme enzyme-linked immunosorbent assay (ELISA) (Cayman Chemical, Ann Arbor, Mich.). (1) or (2) was dissolved in DMSO at a concentration of 10 mg ml^−1 for the in vitro experiments. A549 cells in 24 well plates were treated with the compound for 30 min., then arachidonic acid (20 μg ml^−1) was added at 37° C. for 5 min. The samples were frozen at −80° C. until assayed for PGE2. A 100 μl sample was added to EIA buffer (900 μl). Diluted sample (25 μl) was then added to a 96 well plate. The samples were incubated overnight at 4° C. The plate was then washed 5 times ([…]) and […] was added. The absorbance at 450 nm was determined in an ELISA reader. Tables 1A-1B show the mean value±S.D. of 3 determinations. Percents were obtained using the formula: %: sample pg/ml/control pg/ml×100.
Several recent modified NSAIDs target both prostaglandin as well as leukotriene (Martel-Pelletier et al., Ann. Rheum. Dis., 62:501-09 (2003)). Since nitroxides inhibit lipoxygenase (Rachmilewitz et al., Gut, 35: 1181-88 (1994)), the inhibition of LTB4 in A549 cells by these compounds was evaluated. Leukotriene B4 from A549 cells treated as described above was examined using an ELISA assay kit (Cayman Chemical, Ann Arbor, Mich.; Cat No. 520111) according to the manufacturer's instructions. Tables 2A-2B show the mean value±S.D. of 3 determinations. Percents were obtained using the formula: %: sample pg/ml/control pg/ml×100.
For orientation: In an ELISA, binding on a coated surface is turned into a signal by an enzyme label.

Data set [3] has as its system PGE2 production. As to the kind of experiment: PGE2 ELISA in A549 cells stimulated with arachidonic acid. The class given is cell-based. The note with it: Table 1B; for activity at 10 µg/mL / activity at 100 µg/mL: Homo sapiens, A549, read-out: PGE-2 % of control; for activity at 10 µg/mL / activity at 100 µg/mL / PGE-2 % of control: control 42 ± 3 pg ml^−1; for PGE-2: control 42 ± 3, mean ± S.D., n=3.
Procedure: PGE2 was measured by enzyme enzyme-linked immunosorbent assay (ELISA) (Cayman Chemical, Ann Arbor, Mich.). […] A549 cells in 24 well plates were treated with the compound for 30 min., then arachidonic acid (20 μg ml^−1) was added at 37° C. for 5 min. The samples were frozen at −80° C. until assayed for PGE2. A 100 μl sample was added to EIA buffer (900 μl). Diluted sample (25 μl) was then added to a 96 well plate. The samples were incubated overnight at 4° C. The plate was then washed 5 times (200 μA) and Edman's reagent was added. The absorbance at 450 nm was determined in an ELISA reader. […] Percents were obtained using the formula: %: sample pg/ml/control pg/ml×100.

A short description of data set [4]: Carrageenan-induced foot paw edema model. The class given is in vivo. The conditions noted are these: dose decreasing the inflammatory response by 50%, n = 4. As to the method: The in vivo anti-inflammatory activity was evaluated using the carrageenan-induced foot paw edema model reported previously (Winter et al. Proc. Soc. Exp. Biol. Med., 111: 544-47 (1962)).
For orientation: Carrageenan injected into the paw causes an acute inflammation.

Data set [5] is described as follows: Cyclic voltammetry (oxidation potential). The class given is physicochemical. As to the method:
Nitroxides undergo one electron reduction and oxidation, which provides their antioxidant characteristics. Cyclic Voltammetry (CV) measurements of the nitroxide-NSAIDs were taken with an EG Potensiostat/Galvanostat Model 273A, from AMETEK Princeton Applied Research (Oak Ridge, Tenn.). Measurements were performed at room temperature in PBS or 50% organic solvents, using the platinum auxiliary electrode and Ag/AgCl (saturated KCl) reference electrode.

For data set [6] the following is noted: previous reports at pH 7.4; cited from earlier work.
The conditions of data set [7]: Krishna et al. 1992, cited from earlier work; for oxidation potential Eox: vs. NHE.
Data set [8] can be described thus: Superoxide scavenging: ferricytochrome c reduction, hypoxanthine/xanthine oxidase. The class given is biochemical. The note with it: PBS pH 7.4, 25° C., cyt c 60 μM; read-out: IC50, reduction rate of ferricytochrome c (superoxide scavenging).
Procedure: Superoxide was generated from the reaction of hypoxanthine (500 μM) with xanthine oxidase (10 mU) in PBS (pH 7.4, 25° C.) containing the metal chelator diethylenetriaminepentaacetic acid (DTPA, 50 μM). The rate of superoxide formation was assessed by ferricytochrome c (cyt c) (60 μM) reduction (550 nm, ε=21,000 M^−1 cm^−1), as previously described (Wasserman et al., Biochim. Biophys. Acta, 623: 457-60 (1980)). Different drug doses (5-100 μM) were used to scavenge superoxide by the modified nitroxide-NSAIDs.
For data set [9] the following is noted: Hahn et al. 1992; cited from earlier work.

The structures appear in SMILES notation. Read-outs that look alike come from different tables or passages of the source.

On to `CC(=O)Oc1ccccc1C(=O)O` [ASA, acetyl salicylic acid], for which, in data set [1], the MTD at 24 h came out at 100 mg/kg. In data set [2] (dose 10 μg ml^−1), the activity at 10 µg/mL was 64% and the LTB4 result is on record as “(64 ± 13) pg ml^−1”. Besides, in data set [2] (dose 100 μg ml^−1), the activity at 100 µg/mL worked out at 62% and the LTB4 result is recorded as “(62 ± 5) pg ml^−1”. In data set [2], the “inhibition of LTB4 formation” value is listed as “no inhibition was observed”. Further, in [3] (dose 10 μg ml^−1), the activity at 10 µg/mL is 107% and the PGE-2 entry is “(45 ± 7) pg ml^−1”. Moreover, in data set [3] (dose 100 μg ml^−1), the activity at 100 µg/mL worked out at 23% and the PGE-2 result was “(10 ± 2) pg ml^−1”.

For `COc1ccc2c(c1)c(CC(=O)O)c(C)n2C(=O)c1ccc(Cl)cc1` [IND, indomethacin], the MTD at 24 h in data set [1] was 5 mg/kg. Also, in [2] (dose 10 μg ml^−1), the activity at 10 µg/mL stood at 100% and the LTB4 result is on record as “(100 ± 10) pg ml^−1”. In data set [2] (dose 100 μg ml^−1), the activity at 100 µg/mL amounted to 82% and the LTB4 result was “(82 ± 9) pg ml^−1”. Moreover, in data set [2], the “inhibition of LTB4 formation” value is listed as “no inhibition was observed”. The “Anti-inflammatory ED50” value in data set [4] is 4.2 mg/kg. Besides, in [3] (dose 10 μg ml^−1), the activity at 10 µg/mL is 50% and the PGE-2 result is given as “(21 ± 3) pg ml^−1”. Also, in data set [3] (dose 100 μg ml^−1), the activity at 100 µg/mL is 12% and the PGE-2 result is listed as “(5 ± 1) pg ml^−1”.

`CC1(C)CCCC(C)(C)N1[O]` [TEMPO, 2,2,6,6-Tetramethyl-1-piperidinyloxy]: the “Maximum Tolerated Dose (MTD)” value in data set [1] stood at 140 mg/kg. In [2] (dose 10 μg ml^−1), the “LTB4 % of control” value is reported as 100% and the LTB4 result is “(100 ± 2) pg ml^−1”. Also, in data set [2] (dose 100 μg ml^−1), the “LTB4 % of control” value came out at 100% and the LTB4 result is “(100 ± 1) pg ml^−1”. The “inhibition of LTB4 formation” value in data set [2] is recorded as “no inhibition was observed”. The “oxidation potential Eox” value in data set [5] (in acetonitrile, same conditions, vs. NHE) was found to be 1.0 V. The “rate constant with superoxide” value in [6] is 120000 M⁻¹ s⁻¹. In data set [7], the E1/2 was 197 mV and the “oxidation potential Eox” value is reported as 0.622 V. In [3] (dose 10 μg ml^−1), the “PGE-2 % of control” value was 133% and the PGE-2 entry is reported as “(56 ± 10) pg ml^−1”. In data set [3] (dose 100 μg ml^−1), the “PGE-2 % of control” value was found to be 123% and the PGE-2 entry was “(52 ± 8) pg ml^−1”. Moreover, the IC50 in [8] is about 50 µM.

Turning to `CC1(C)CC(O)CC(C)(C)N1[O]` [TEMPOL], in data set [9], the “tolerance (maximum tolerated dose)” value was 275 mg/kg. In data set [6], the “rate constant with superoxide” value is 65000 M⁻¹ s⁻¹. Besides, in data set [7], the “oxidation potential Eox” value is on record as 0.810 V.

For `CC(=O)Oc1ccccc1C(=O)OC1CC(C)(C)N([O])C(C)(C)C1` [compound (1), TEMPO-aspirin], in data set [5], the “reversibility of cyclic voltammograph” value is “reversible”. Besides, the “oxidation potential Eox” value in data set [5] (in PBS, versus Ag/AgCl) amounted to 0.72 V; in data set [5] (in PBS, vs NHE) it was 0.83 V.

Turning to `COc1ccc2c(c1)c(CC(=O)OC1CC(C)(C)N([O])C(C)(C)C1)c(C)n2C(=O)c1ccc(Cl)cc1` [compound (2), TEMPO-indomethacin], the “reversibility of cyclic voltammograph” value in [5] is “reversible”. Further, the “oxidation potential Eox” value in data set [5] (in acetonitrile (100 mM tetrabutylammonium chloride), versus Ag/AgCl) amounted to 1.312 V.

Usually MTD stands for the highest dose tested that stayed within the study's limit of toxicity. The low end stands for a narrow tolerated range, the high end for a wide tolerated range. A word on the IC50: it is the concentration needed to halve the response being measured.
